A short description of data set [1]: Octanol-water distribution coefficient (logD pH 7.4) of the labeled tracer. The format is physicochemical. The conditions noted are these: n-octanol/PBS pH 7.4, room temperature. The method, then:
Approximately 1 MBq of the labeled tracer was dissolved in 1 mL of a 1:1 mixture (by volumes) of phosphate buffered saline (PBS, pH 7.4) and n-octanol in an Eppendorf tube. After vigorous mixing of the suspension for 3 minutes at room temperature, the vial was centrifuged at 15000 g for 5 minutes (Biofuge 15, Heraus Sepatech, Osterode, Germany) and 100 μL aliquots of both layers were measured in a gamma counter. The experiment was repeated at least six times.

In another data set the target is T1, SST2 (Homo sapiens, UniProt P30874).
T1 construct: expressed in transfected cells; host or cells: CHO (Chinese hamster ovary) cells
T1 sequence (P30874 whole entry, species assumed): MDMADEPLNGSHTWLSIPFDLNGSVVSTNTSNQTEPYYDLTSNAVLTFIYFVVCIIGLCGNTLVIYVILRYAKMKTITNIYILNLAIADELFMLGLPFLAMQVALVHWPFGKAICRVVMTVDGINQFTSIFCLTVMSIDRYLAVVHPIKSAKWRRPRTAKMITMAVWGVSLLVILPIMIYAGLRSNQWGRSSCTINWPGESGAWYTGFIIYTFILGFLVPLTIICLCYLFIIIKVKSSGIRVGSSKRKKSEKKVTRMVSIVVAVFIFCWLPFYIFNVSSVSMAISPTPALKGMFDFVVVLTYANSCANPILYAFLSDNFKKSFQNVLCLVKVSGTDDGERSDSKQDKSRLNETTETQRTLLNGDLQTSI
Kind of data set: Determination of IC50: competitive binding against [125I]TOC on SST2-transfected CHO cells. To be noted: [125I]TOC reference radioligand, 60 min room temperature.

The nature of data set [2]: Biodistribution of 18F-labeled SST2 ligands in AR42J tumor-bearing mice. To be noted: female, CD1 nu/nu, mouse, iv, total radioactivity, 1 h post injection. The format is in vivo. On the procedure:
All animal experiments were conducted in accordance with general animal welfare regulations in Germany and the institutional guidelines for the care and use of animals. To establish tumor xenografts, AR42J cells (5×10^6 cells/100 μL) were suspended in Dulbecco modified Eagle medium/Nutrition Mixture F-12 with Glutamax-1 (1:1) and inoculated subcutaneously onto the right shoulder of 8 weeks old, female CD1 nu/nu mice (Charles River, Sulzfeld, Germany). Mice were used for experiments when tumors had grown to a diameter of 5-9 mm (7-15 days after inoculation).
Approximately 0.5-2.0 MBq (0.05-0.25 nmol) of the ^18F-labeled SST2-ligands were injected into the tail vein of AR42J tumor-bearing female CD1 nu/nu mice and sacrificed after 1 h post injection (n=3-5). Selected organs were removed, weighted and measured in a γ-counter.
The Tables 4, 5, and 6 summarize the results of the in vivo mouse experiments. For all biodistribution studies, female CD1 nu/nu mice with AR42J tumor xenografts, were used and sacrificed 1 h post injection.

The mark [3] stands for this setting: AR42J tumor, AR42J tumor, tail vein, read-out: Tumor % ID/g ± SD.
Setting [4] is: adrenal glands, tail vein, read-out: Adrenal glands % ID/g ± SD.
Setting [5] is: blood, tail vein, read-out: Blood % ID/g ± SD.
The mark [6] stands for this setting: bone, tail vein, read-out: Bone % ID/g ± SD.
Where [7] appears, read: heart, tail vein, read-out: Heart % ID/g ± SD.
[8] abbreviates: intestine, tail vein, read-out: Intestine % ID/g ± SD.
[9] abbreviates: kidneys, tail vein, read-out: Kidneys % ID/g ± SD.
Where [10] appears, read: liver, tail vein, read-out: Liver % ID/g ± SD.
The mark [11] stands for this setting: lung, tail vein, read-out: Lung % ID/g ± SD.
Where [12] appears, read: muscle, tail vein, read-out: Muscle % ID/g ± SD.
[13] abbreviates: pancreas, tail vein, read-out: Pancreas % ID/g ± SD.
Where [14] appears, read: spleen, tail vein, read-out: Spleen % ID/g ± SD.
[15] abbreviates: stomach, tail vein, read-out: Stomach % ID/g ± SD.

Each structure is given as a SMILES string. Read-outs that look alike come from different tables or passages of the source.

The IC50 is the midpoint of a concentration-inhibition curve. Low readings indicate higher potency, high ones lower potency.

Turning to `C[C@@H](O)[C@H](NC(=O)C1CSSCC(NC(=O)C(Cc2ccccc2)NC(=O)CNC(=O)CNC(=O)[C@@H](CC(=O)O)NC(=O)C(CC(=O)O)NC(=O)[C@@H](CNC(=O)c2ccc([Si](F)(C(C)(C)C)C(C)(C)C)cc2)NC(=O)CCC(C(=O)O)N2CCN(CC(=O)O)CCN(CC(=O)O)CCN(CC(=O)O)CC2)C(=O)N[C@@H](Cc2ccc(O)cc2)C(=O)NC(Cc2c[nH]c3ccccc23)C(=O)N[C@@H](CCCCN)C(=O)N[C@@H]([C@@H](C)O)C(=O)N1)C(=O)O` (some centres unmarked) (natGa complex, metal not drawn) [[Ga]6], the “LogDpH=7.4” value in data set [1] is recorded as −2.15 ± 0.09. On SST2, this molecule yielded an IC50 of 149 ± 20.3 nM.
`C[C@@H](O)[C@H](NC(=O)C1CSSCC(NC(=O)C(Cc2ccccc2)NC(=O)CNC(=O)CNC(=O)[C@@H](CC(=O)O)NC(=O)C(CC(=O)O)NC(=O)[C@@H](CNC(=O)CN2CCN(CC(=O)O)CCN(CC(=O)O)CCN(CC(=O)O)CC2)NC(=O)C[N+](C)(C)Cc2ccc([Si](F)(C(C)(C)C)C(C)(C)C)cc2)C(=O)N[C@@H](Cc2ccc(O)cc2)C(=O)NC(Cc2c[nH]c3ccccc23)C(=O)N[C@@H](CCCCN)C(=O)N[C@@H]([C@@H](C)O)C(=O)N1)C(=O)O` (some centres unmarked) (natGa complex, metal not drawn) [[Ga]24]: at SST2, the IC50 was 9.48 ± 1.96 nM. The tissue uptake at 1 h in data set [2] (setting [3]) was found to be 23.9 ± 4.1 %ID/g; in data set [2] (AR42J tumor, AR42J tumor, Blocking study, read-out: Tumor % ID/g ± SD) it was 6.1 ± 0.02 %ID/g; in data set [2] (setting [4]) it was 1.52 ± 0.46 %ID/g; in data set [2] (adrenal glands, Blocking study, read-out: Adrenal glands % ID/g ± SD) it was 0.54 ± 0.05 %ID/g; in data set [2] (setting [5]) it was 0.66 ± 0.32 %ID/g; in data set [2] (blood, Blocking study, read-out: Blood % ID/g ± SD) it was 1.24 ± 0.61 %ID/g. The tissue uptake at 1 h in data set [2] (setting [6]) was found to be 1.32 ± 0.19 %ID/g; in data set [2] (bone, Blocking study, read-out: Bone % ID/g ± SD), 0.77 ± 0.07 %ID/g; in data set [2] (setting [7]), 0.34 ± 0.09 %ID/g; in data set [2] (heart, Blocking study, read-out: Heart % ID/g ± SD) it was 0.53 %ID/g; in data set [2] (setting [8]), 1.41 ± 0.19 %ID/g; in data set [2] (intestine, Blocking study, read-out: Intestine % ID/g ± SD) it was 0.71 ± 0.04 %ID/g. The tissue uptake at 1 h amounted to 13.6 ± 3.58 %ID/g in data set [2] (setting [9]); 18.2 ± 2.03 %ID/g in data set [2] (kidneys, Blocking study, read-out: Kidneys % ID/g ± SD); 1.05 ± 0.22 %ID/g in data set [2] (setting [10]); 1.82 ± 0.22 %ID/g in data set [2] (liver, Blocking study, read-out: Liver % ID/g ± SD); 2.33 ± 0.1 %ID/g in data set [2] (setting [11]); 1.36 ± 0.13 %ID/g in data set [2] (lung, Blocking study, read-out: Lung % ID/g ± SD). In addition, the tissue uptake at 1 h is 0.09 ± 0.04 %ID/g in data set [2] (setting [12]); 0.21 ± 0.01 %ID/g in data set [2] (muscle, Blocking study, read-out: Muscle % ID/g ± SD); 9.28 ± 0.57 %ID/g in data set [2] (setting [13]); 1.07 ± 0.02 %ID/g in data set [2] (pancreas, Blocking study, read-out: Pancreas % ID/g ± SD); 0.45 ± 0.05 %ID/g in data set [2] (setting [14]); 0.33 %ID/g in data set [2] (spleen, Blocking study, read-out: Spleen % ID/g ± SD). The tissue uptake at 1 h in data set [2] (setting [15]) was determined as 4.95 ± 0.35 %ID/g; in data set [2] (stomach, Blocking study, read-out: Stomach % ID/g ± SD), 1.01 ± 0.06 %ID/g.
`C[C@@H](O)[C@H](NC(=O)C1CSSCC(NC(=O)C(Cc2ccccc2)NC(=O)CNC(=O)CNC(=O)CNC(=O)C(CC(=O)O)NC(=O)[C@@H](CC(=O)O)NC(=O)C(CCCCN)NC(=O)[C@@H](CNC(=O)C[N+](C)(C)Cc2ccc([Si](F)(C(C)(C)C)C(C)(C)C)cc2)NC(=O)CN2CCN(CC(=O)O)CCN(CC(=O)O)CCN(CC(=O)O)CC2)C(=O)N[C@@H](Cc2ccc(O)cc2)C(=O)NC(Cc2c[nH]c3ccccc23)C(=O)N[C@@H](CCCCN)C(=O)N[C@@H]([C@@H](C)O)C(=O)N1)C(=O)O` (some centres unmarked) (natGa complex, metal not drawn) [[Ga]45] registered an IC50 at SST2 of 4.3 ± 0.06 nM. Moreover, the tissue uptake at 1 h in data set [2] (setting [3]) turned out to be 31.6 ± 4.96 %ID/g; in data set [2] (setting [4]), 1.54 ± 0.28 %ID/g; in data set [2] (setting [5]) it was 0.53 ± 0.23 %ID/g; in data set [2] (setting [6]) it was 1.81 ± 0.07 %ID/g; in data set [2] (setting [7]), 0.28 ± 0.04 %ID/g; in data set [2] (setting [8]), 1.27 ± 0.13 %ID/g. The tissue uptake at 1 h was found to be 72.7 ± 7.68 %ID/g in data set [2] (setting [9]); 1.28 ± 0.11 %ID/g in data set [2] (setting [10]); 3.34 ± 0.49 %ID/g in data set [2] (setting [11]); 0.11 ± 0.02 %ID/g in data set [2] (setting [12]); 11.8 ± 1.36 %ID/g in data set [2] (setting [13]); 0.56 ± 0.1 %ID/g in data set [2] (setting [14]). In addition, the tissue uptake at 1 h in data set [2] (setting [15]) amounted to 7.5 ± 0.13 %ID/g.
At SST2, `C[C@@H](O)[C@H](NC(=O)C1CSSCC(NC(=O)C(Cc2ccccc2)NC(=O)CNC(=O)CNC(=O)CNC(=O)C(CC(=O)O)NC(=O)[C@@H](CC(=O)O)NC(=O)C(CCCNC(N)=O)NC(=O)[C@@H](CNC(=O)C[N+](C)(C)Cc2ccc([Si](F)(C(C)(C)C)C(C)(C)C)cc2)NC(=O)CN2CCN(CC(=O)O)CCN(CC(=O)O)CCN(CC(=O)O)CC2)C(=O)N[C@@H](Cc2ccc(O)cc2)C(=O)NC(Cc2c[nH]c3ccccc23)C(=O)N[C@@H](CCCCN)C(=O)N[C@@H]([C@@H](C)O)C(=O)N1)C(=O)O` (some centres unmarked) (natGa complex, metal not drawn) [[Ga]46] had an IC50 of 4.79 ± 0.84 nM. In addition, the tissue uptake at 1 h in data set [2] (setting [3]) stood at 23.4 ± 1.07 %ID/g; in data set [2] (setting [4]), 1.71 ± 0.38 %ID/g; in data set [2] (setting [5]), 0.57 ± 0.24 %ID/g; in data set [2] (setting [6]), 1.21 ± 0.24 %ID/g; in data set [2] (setting [7]), 0.3 ± 0.04 %ID/g; in data set [2] (setting [8]) it was 1.43 ± 0.35 %ID/g. In addition, the tissue uptake at 1 h in data set [2] (setting [9]) was 12.6 ± 1.58 %ID/g; in data set [2] (setting [10]), 0.83 ± 0.14 %ID/g; in data set [2] (setting [11]), 3.22 ± 0.53 %ID/g; in data set [2] (setting [12]), 0.1 ± 0.02 %ID/g; in data set [2] (setting [13]), 11.1 ± 2.61 %ID/g; in data set [2] (setting [14]), 0.57 ± 0.14 %ID/g. The tissue uptake at 1 h in data set [2] (setting [15]) turned out to be 6.51 ± 1.64 %ID/g.
With `C[C@@H](O)[C@H](NC(=O)C1CSSCC(NC(=O)C(Cc2ccccc2)NC(=O)CNC(=O)CNC(=O)CNC(=O)C(CC(=O)O)NC(=O)[C@@H](CC(=O)O)NC(=O)C(CNC(=O)CN2CCN(CC(=O)O)CCN(CC(=O)O)CCN(CC(=O)O)CC2)NC(=O)C[N+](C)(C)Cc2ccc([Si](F)(C(C)(C)C)C(C)(C)C)cc2)C(=O)N[C@@H](Cc2ccc(O)cc2)C(=O)NC(Cc2c[nH]c3ccccc23)C(=O)N[C@@H](CCCCN)C(=O)N[C@@H]([C@@H](C)O)C(=O)N1)C(=O)O` (some centres unmarked) (natGa complex, metal not drawn) [[Ga]50], the IC50 on SST2 amounted to 3.01 ± 0.03 nM. Besides, the tissue uptake at 1 h in data set [2] (setting [3]) was 31.8 ± 2.49 %ID/g; in data set [2] (setting [4]), 2.39 ± 0.53 %ID/g; in data set [2] (setting [5]) it was 0.5 ± 0.21 %ID/g; in data set [2] (setting [6]), 1.23 ± 0.41 %ID/g; in data set [2] (setting [7]), 0.27 ± 0.03 %ID/g; in data set [2] (setting [8]), 1.84 ± 0.45 %ID/g. For the same molecule, the tissue uptake at 1 h is 12.3 ± 3.4 %ID/g in data set [2] (setting [9]); 1.22 ± 0.18 %ID/g in data set [2] (setting [10]); 3.73 ± 0.57 %ID/g in data set [2] (setting [11]); 0.1 ± 0.03 %ID/g in data set [2] (setting [12]); 17.3 ± 2.87 %ID/g in data set [2] (setting [13]); 0.55 ± 0.06 %ID/g in data set [2] (setting [14]). Also, the tissue uptake at 1 h in data set [2] (setting [15]) amounted to 9.54 ± 1.83 %ID/g.

For the origin of these results see patent US20240317780A1, “RADIOPHARMACEUTICAL SOMATOSTATIN RECEPTOR LIGANDS AND PRECURSORS THEREOF” (Technische Universität München, priority 2021, published 2024).
